# Data: patent publication US9073863B2, “Cyanoquinoline compounds having activity in correcting mutant-CFTR processing and increasing ion transport and uses thereof” (The Regents of the University of California, priority 2011, dated 2015)
# Columns and labels:
# Type in all cases: cell-based
# ΔF508-CFTR [1] = molecular target: T1, ΔF508-CFTR (Homo sapiens, UniProt P13569, DEL508-508); test: Corrector assay, YFP fluorescence plate reader iodide influx in ΔF508-CFTR expressing FRT cells
# T1 construct: expressed in transfected cells; host or cells: Fischer rat thyroid (FRT) epithelial cells, stably transfected
# T1 sequence (P13569 with tags, fused parts or gaps DEL508-508): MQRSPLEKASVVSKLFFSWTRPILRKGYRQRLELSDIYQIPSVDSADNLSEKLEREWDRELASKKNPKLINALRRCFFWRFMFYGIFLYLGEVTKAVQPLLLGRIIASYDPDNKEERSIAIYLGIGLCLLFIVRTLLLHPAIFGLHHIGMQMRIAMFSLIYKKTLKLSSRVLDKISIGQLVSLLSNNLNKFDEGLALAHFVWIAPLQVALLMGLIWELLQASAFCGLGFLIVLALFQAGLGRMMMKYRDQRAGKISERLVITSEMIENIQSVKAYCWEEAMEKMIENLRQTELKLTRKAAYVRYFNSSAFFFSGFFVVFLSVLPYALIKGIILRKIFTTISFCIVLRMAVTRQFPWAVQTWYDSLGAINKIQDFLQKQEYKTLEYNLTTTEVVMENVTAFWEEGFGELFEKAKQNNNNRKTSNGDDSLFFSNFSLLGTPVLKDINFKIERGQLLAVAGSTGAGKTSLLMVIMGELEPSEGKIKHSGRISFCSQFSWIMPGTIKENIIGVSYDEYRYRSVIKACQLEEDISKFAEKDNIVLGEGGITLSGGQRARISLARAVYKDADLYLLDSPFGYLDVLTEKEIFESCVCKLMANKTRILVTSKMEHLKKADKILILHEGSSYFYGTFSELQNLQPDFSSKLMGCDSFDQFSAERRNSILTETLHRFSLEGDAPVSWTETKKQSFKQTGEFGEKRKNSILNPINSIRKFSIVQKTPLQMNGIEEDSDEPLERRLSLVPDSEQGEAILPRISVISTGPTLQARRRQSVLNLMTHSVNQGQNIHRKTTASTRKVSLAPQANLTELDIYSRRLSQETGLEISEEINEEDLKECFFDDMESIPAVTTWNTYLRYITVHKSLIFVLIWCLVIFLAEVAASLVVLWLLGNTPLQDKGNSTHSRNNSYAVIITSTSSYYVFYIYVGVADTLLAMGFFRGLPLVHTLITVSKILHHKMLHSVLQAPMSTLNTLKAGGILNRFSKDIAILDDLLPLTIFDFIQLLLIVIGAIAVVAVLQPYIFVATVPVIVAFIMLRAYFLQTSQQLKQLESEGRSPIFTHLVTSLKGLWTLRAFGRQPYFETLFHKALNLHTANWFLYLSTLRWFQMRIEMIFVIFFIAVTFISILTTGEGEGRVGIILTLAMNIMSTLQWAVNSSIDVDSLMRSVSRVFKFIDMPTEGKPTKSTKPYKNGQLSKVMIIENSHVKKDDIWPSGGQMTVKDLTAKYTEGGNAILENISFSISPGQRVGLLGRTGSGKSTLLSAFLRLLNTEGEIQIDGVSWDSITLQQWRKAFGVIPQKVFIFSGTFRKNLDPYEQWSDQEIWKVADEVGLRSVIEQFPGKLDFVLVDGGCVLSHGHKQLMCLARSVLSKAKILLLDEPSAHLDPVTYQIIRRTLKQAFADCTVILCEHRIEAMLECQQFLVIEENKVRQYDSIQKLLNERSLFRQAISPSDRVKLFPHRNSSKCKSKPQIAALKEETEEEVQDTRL
# Method: (§1) Screening procedures. Screening of compounds for activity was carried out using a Beckman Coulter platform equipped with FLUOstar fluorescence plate readers (Optima; BMG Labtech) with dual syringe pumps and 500±10 nm excitation and 535±15 nm emission filters (Chroma Corp.). For the corrector assay, FRT cells were grown at 37° C./5% CO2 for 18-24 h and then incubated for 18-24 h with 100 μL of medium containing test compounds (25 μM final concentration). At the time of the assay, cells were washed with PBS and then incubated for 10 min with PBS containing forskolin (20 μM) and genistein (50 μM). For the potentiator assay, FRT cells were grown at 37° C./5% CO2 for 18-24 h and then for 18-24 h at 27° C. At the time of the assay, cells were washed with PBS and then incubated for 10 min with PBS (50 μL) containing forskolin (20 μM) and test compound (0-25 μM final concentration). For both the corrector and potentiator assays, each well was assayed individually for I^− influx by recording fluorescence continuously (200 ms per point) for 2 s (baseline) and then for 12 s after rapid addition of 165 μL PBS in which 137 mM Cl^− was replaced by I^−. Initial I^− influx rate was computed by fitting the final 11.5 seconds of the data to an exponential for extrapolation of initial slope, which was normalized for background-subtracted initial fluorescence. All compound plates contained negative controls and positive controls (10 μM Corr-4a for corrector assay; 50 μM genistein for potentiator assay).
# (§2) Screening of about 110,000 small molecules was done to identify new ΔF508-CFTR corrector scaffolds having high correction efficiency and/or having independent potentiator activity. […] FRT cells co-expressing human ΔF508-CFTR and a halide-sensing YFP were incubated with test compounds at 37° C. (corrector assay) or 27° C. (potentiator assay). ΔF508-CFTR function was assayed in a plate reader from YFP fluorescence quenching in response to iodide addition in the presence of forskolin (20 μM) plus genistein (50 μM) for corrector assay, or forskolin (20 μM) alone for potentiator assay. As shown in FIG. 1A (left), primary screening for corrector activity was done using a cell-based fluorescence assay of iodide influx in which FRT cells expressing ΔF508-CFTR and an iodide-sensitive YFP were incubated with test compounds at 10 μM for 18-24 h prior to assay. Iodide influx was measured by addition of extracellular iodide in the presence of a potentiator (50 μM genistein) and cAMP agonist (20 μM forskolin). Compound efficacy and potency (from concentration-dependence studies) in the corrector assay were compared to reference bithiazole Corr-4a (10 μM) and to low-temperature rescued cells. Active compounds were counter-screened for potentiator activity (FIG. 1A, right) in which iodide influx was measured in the ΔF508-CFTR expressing FRT cells after low-temperature rescue and in the presence of 20 μM forskolin.
# (§3) Screening procedures. Plate reader activity assay was carried out using a Beckman Coulter platform containing a robotic arm, CO2 incubator containing microplate carousel, plate-washer, liquid handling work station, bar code reader, de-lidding station, plate sealer, and FLUOstar fluorescence plate readers (Optima; BMG LABTECH Gmbh), equipped with dual syringe pumps and 500±10 nm excitation and 535±15 nm emission filters (Chroma Corp.). For the corrector assay, ΔF508-CFTR-expressing FRT cells were grown at 37° C. (90% humidity; 5% CO2) for 18-24 h and then incubated for 18-24 h with 100 μL of medium containing test compounds (0-25 μM final concentration). At the time of the assay, cells were washed with PBS and then incubated for 10 min with PBS containing forskolin (20 μM) and genistein (50 μM). For the potentiator assay, FRT cells were grown at 37° C. (90% humidity; 5% CO2) for 18-24 h and then for 18-24 h at 27° C. […]
# ΔF508-CFTR [2] = molecular target: T1, ΔF508-CFTR; test: Short-circuit current (apical membrane chloride current) corrector assay in ΔF508-CFTR expressing FRT cells; conditions: 10 μM, 18-24 h incubation
# Method: Short-circuit current measurements. ΔF508-CFTR-expressing FRT cells were cultured on Snapwell inserts for 7-9 days. For corrector testing, test compounds were incubated with FRT cells for 18-24 h at 37° C. prior to measurements. For potentiator testing, the FRT cells were incubated for 18-24 h at 27° C. prior to measurements. The basolateral solution contained 130 mM NaCl, 2.7 mM KCl, 1.5 mM KH2PO4, 1 mM CaCl2, 0.5 mM MgCl2, 10 mM glucose, and 10 mM Na-HEPES (pH 7.3). In the apical bathing solution, 65 mM NaCl was replaced by Na gluconate, and CaCl2 was increased to 2 mM. Solutions were bubbled with air and maintained at 37° C. The basolateral membrane was permeabilized with 250 μg/ml amphotericin B. Hemichambers were connected to a DVC-1000 voltage clamp (World Precision Instruments Inc.) via Ag/AgCl electrodes and 1 M KCl agar bridges for recording of short-circuit current.
# Short-circuit current was measured as a definitive electrophysiological assay to verify Compound 22 corrector action. Apical membrane chloride current was measured in ΔF508-CFTR expressing FRT cells after basolateral membrane permeabilization and in the presence of a transepithelial chloride gradient (apical, 65 mM; basolateral, 130 mM). In FIG. 3C, incubation with Corr-4a (5 μM) is shown as reference (right). Forskolin (20 μM), genistein (50 μM) and CFTRinh-172 (10 μM) were added where indicated. […] FIG. 3D summarizes Compound 22 concentration dependence data from short-circuit current studies. […]
# Short-circuit current was measured in an electrophysiology assay to verify corrector activity. Apical membrane chloride current was measured in ΔF508-CFTR expressing FRT cells after basolateral membrane permeabilization and in the presence of a transepithelial chloride gradient. […] To assay potentiator activity apical membrane chloride current was measured after low-temperature rescue, in response to CP-3 addition. CP-3 concentration-dependent increases in apical membrane current were measured in the presence of 5 μM forskolin. […]
# ΔF508-CFTR [3] = molecular target: T1, ΔF508-CFTR; test: CFTR immunoblot of ΔF508-CFTR expressing FRT cells; conditions: 24 h at 37° C.
# Method: CFTR Immunoblot. DF508-CFTR expressing FRT cells grown on 6-well plates were treated with Corr-4a ([…]), Compound 22 […] or negative control at 37° C. for 24 h. After treatment, cells were washed with PBS and lysed in 20 mM Hepes (pH 7), 150 mM NaCl, 1 mM EGTA and 1% Igepal containing Complete Protease Inhibitor Cocktail (Roche). After pre-clearing, lysates were subjected to SDS-PAGE and analyzed by immunoblot. Proteins were immunodetected using a mouse monoclonal anti-CFTR antibody (M3A7, Millipore) followed by HRP-conjugated anti-mouse IgG, and visualized by chemiluminescence (ECL Plus, Amersham).
# The action of Compound 22 as corrector of defective ΔF508-CFTR cellular processing was verified by CFTR immunoblot analysis (FIG. 4C). Wildtype CFTR was detected as a strong band at 170 kDa (band C), corresponding to complex glycosylated CFTR. […] Band B, which corresponds to core-glycosylated ΔF508-CFTR, was also seen.
# ΔF508-CFTR [4] = molecular target: T1, ΔF508-CFTR; test: Potentiator assay, YFP fluorescence plate reader iodide influx in low-temperature rescued ΔF508-CFTR expressing FRT cells; conditions: Table VIII; FRT cells 18-24 h at 27° C., forskolin 20 μM + test compound, I− influx
# Method: as §1, §2, §3
# [5] = Table VIII, FRT cells, 18-24 h with compound at 37° C., forskolin 20 μM + genistein 50 μM, I− influx
SMILES,Corrector Vmax (ΔF508-CFTR [1]; [5]),EC50 (ΔF508-CFTR [4]) [µM],Potentiator Vmax (ΔF508-CFTR [4]) [µM/s],also measured
COc1ccc(C(=O)NCCNc2nc3cc(C)cc(C)c3cc2C#N)cc1 [Compound CP3],–,–,–,"corrector and potentiator activities, in words (ΔF508-CFTR [1]; concentration-dependence in corrector and potentiator I− influx assays (FIG. 2, FIG. 7)): both corrector and potentiator activities; apical membrane current (corrector) (ΔF508-CFTR [2]): increase in apical membrane current"
"COc1ccc(Cl)cc1Nc1nc(-c2sc(NC(=O)c3ccccc3)nc2C)cs1 [Corr-4a, reference compound]",–,–,–,"complex glycosylated CFTR (band C) in immunoblot (ΔF508-CFTR [3]): band C was visualized; iodide influx after incubation at 27° C. (ΔF508-CFTR [1]; Compound 22 (20 µM) or Corr-4a (10 µM), 24 h, 27° C., vs low-temperature rescue control): substantially increased iodide influx; iodide influx after incubation at 37° C. (ΔF508-CFTR [1]; Compound 22 (20 µM) or Corr-4a (10 µM), 24 h, 37° C., with genistein): increased iodide influx"
COc1cccc(C(=O)N2CCN(c3nc4cc(C)cc(C)c4cc3C#N)CC2)c1 [drawing 153],inactive,1.2,200,–
COc1ccc(C(=O)NCCNc2nc3cc(C)cc(C)c3cc2C#N)cc1 [drawing 148],172 µM/s,4.1,181,EC50 (ΔF508-CFTR [1]; [5]): 3 µM
